What was measured:
[1] = system: DENV-2; experiment: DENV titer-reduction assay (plaque assay); format: cell-based, dengue virus; details: 8.5 µM (compound 14 at 1.5 µM), Huh7, MOI 0.05, 72 h
Procedure: (§1) Selected compounds were validated at 8.5 µM or 1.5 µM (for compounds considered toxic at higher concentrations) using titer-reduction assays. Huh7 cells (1.5 × 10^5 per well) were plated in 24-well plates. Next day, the cells were inoculated with ZIKV or DENV (MOI 0.2 or 0.05, respectively) and two hours later, the inoculum was replaced with post-infection medium containing compound of interest at 8.5 µM or 1.5 µM. Seventy-two hpi, supernatants from infected and treated cells were collected and viral titers were measured by plaque assay. To visualize plaques, confluent Vero cells in 24-well plates were inoculated with 1:10 serial dilutions of supernatants. After two hours, the inoculum was retired and replaced with 800 µL of overlay medium (MEM medium containing 1.3% methylcellulose, 2% FBS, 100 IU streptomycin/penicillin per mL and 10 mM HEPES). After 5 days (7 days for DENV), cells were washed with PBS, fixed with 2% formaldehyde, and stained using 0.5% crystal violet in 25% methanol. Infectious virus titer (pfu/mL) was determined using the following formula: number of plaques × dilution factor × (1/inoculum volume (mL)). Viral titers were normalized with DMSO-treated and infected cells (0% inhibition). The limit of detection was 200 pfu/mL (100% inhibition). […] Dose-response assays (Figure S4, Panels B and C) were performed for selected compounds using titer-reduction assays. We used a concentration range of 0.5 to 15 µM for all selected compounds except for compound 14 (range of 0.1–3 µM). Pfu/mL were normalized as mentioned for single-dose response experiment using the values for DMSO-treated and infected cells (0% inhibition) and the limit of detection value (200 pfu/mL) as 100% inhibition. Dose-response curves were built in GraphPad Prism and EC50 values were obtained from those curves.
Figure 2 Inhibition of DENV by selected compounds. Huh7 cells were plated in 24 well plate. Next day, cells were inoculated with DENV (MOI = 0.05). After 2 h of infection inoculum was retired and the cells were treated with inhibitors at 8.5 µM (except for compound 14, 1.5 µM) for 72 h. Next, supernatants were assayed for viral titer by plaque assay and titers were normalized vs DMSO and expressed as % inhibition. The experiment was performed two independent times and each sample was performed in triplicate. The bars depict mean plus standard error of the mean.

[2] = system: ZIKV; experiment: ZIKV reporter assay (luciferase-expressing ZIKV PAN1 Nluc in Huh7 cells); format: cell-based; details: Zika virus, Huh-7, Huh7, MOI 0.2, 72 hpi
Procedure: The initial screening for ZIKV was performed using the in-house developed infectious ZIKV reporter expressing Nanoluc (ZIKV PAN1 Nluc) (see details in SI). Briefly, 1.5 × 10^4 Huh7 cells per well were seeded in 96 well plates. Next day, cells were inoculated with the ZIKV reporter at a multiplicity of infection (MOI) of 0.2 in infection medium (MEM medium supplemented with 1% FBS, 100 IU streptomycin/penicillin per mL, 1 mM sodium pyruvate and 10 mM HEPES). After 2 h, the inoculum was replaced with post-infection medium (MEM medium supplemented with 5% FBS, 100 IU streptomycin/penicillin per mL, 1 mM sodium pyruvate and 10 mM HEPES) containing compound of interest (10 µM). We used the flavivirus NS5 MTase inhibitor NSC12155^13 (10 µM) and the NS5 RdRp inhibitor NITD008^12 (1 µM) as positive controls for inhibition or 0.05% DMSO as vehicle control. Seventy-two hours post-infection (hpi), the cells were lysed with 50 µL 1× luciferase lysis buffer (Promega, Madison, WI, USA), incubated 10 min at room temp and stored at −80 °C. Thirty-five µL of lysed cells were transferred to a white 96-well plate and combined with 35 µL Nano-Glo® luciferase assay substrate (Promega) diluted 1:50 in Nano-Glo® luciferase assay buffer (Promega). The reaction was incubated for 2 min and luminescence readings were acquired using a Neo 2 plate reader (BioTek, Winooski, VT, USA). Percent inhibition was calculated in GraphPad Prism (San Diego, CA, USA) normalizing the luciferase signal to infected cells treated with DMSO (0% inhibition) and uninfected cells treated with DMSO (100% inhibition). EC50 values were calculated in GraphPad Prism using data obtained from dose-response experiments. For compounds 1 and 8, a range of concentrations between 0.05 and 15 µM were used. For compounds 11, 14, 23 and NSC12155, we used concentrations from 0.005 to 90 µM and 0.002 to 45 µM for NITD008.

[3] = Cell viability assay (MTS); format: cell-based; details: human, non-infected Huh7 cells; for viability at 10 µM: normalized to DMSO; for CC50 at 72 h: Huh7 cells
Procedure: Cell viability assays for non-infected Huh7 cells treated with the testing compounds (in-house library), control compounds (NITD008, RDV) and DMSO were performed in parallel with the antiviral screening. After 3 or 5 days of treatment, depending upon the experiment, cell viability was evaluated using the MTS-based tetrazolium reduction CellTiter 96 Aqueous Non-Radioactive cell proliferation assay (Promega). Treatment was retired from the wells and the cells incubated with MTS diluted 1:10 in MEM medium supplemented with 10% FBS. Absorbance was measured at 490 nm wavelength. Readings were normalized with DMSO-treated cells (100%) and expressed as % viability. For dose-response experiments, we used concentrations between 0.01 and 90 µM and dose-response curves and CC50 were calculated using GraphPad Prism.

[4] = system: ZIKV; experiment: ZIKV titer-reduction assay (plaque assay); format: cell-based, Zika virus; details: Huh7, MOI 0.2, 72 hpi; for inhibition at 8.5 µM / EC50 / EC90 / inhibition at 1.5 µM: Zika virus; for inhibition at 8.5 µM / inhibition at 1.5 µM: Huh-7, 72 h; for EC50 / EC90: Huh-7
Procedure: as §1

[5] = target: ZIKV NS5 MTase (Zika virus, UniProt A0A024B7W1); experiment: ZIKV NS5 MTase biochemical assay; details: read-out: IC50 against ZIKV NS5 MTase
Chain of ZIKV NS5 MTase (A0A024B7W1 2521-2785): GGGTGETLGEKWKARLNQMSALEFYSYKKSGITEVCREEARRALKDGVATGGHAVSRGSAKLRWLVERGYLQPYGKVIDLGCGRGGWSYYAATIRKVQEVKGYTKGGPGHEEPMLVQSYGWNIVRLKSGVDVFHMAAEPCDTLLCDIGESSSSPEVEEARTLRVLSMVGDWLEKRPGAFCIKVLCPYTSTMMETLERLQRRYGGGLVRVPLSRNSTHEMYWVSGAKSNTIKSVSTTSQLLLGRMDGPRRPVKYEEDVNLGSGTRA

Row | SMILES | Inhibition of DENV (% inhibition / protection) [1] | inhibition at 10 µM [2] [%] | EC50 [2] [µM] | viability at 10 µM [3] [%] | CC50 at 72 h [3] [µM] | inhibition at 8.5 µM ([4]; 8.5 µM) [%] | EC50 [4] [µM] | EC90 [4] [µM] | IC50 [5] [µM] | inhibition at 1.5 µM ([4]; 1.5 µM) [%] | Titer Reduction Assay EC99 ([4]; NR = not reached) [µM] | Titer Reduction Assay % at 8.5 µM ([4]; 8.5 µM) | Titer Reduction Assay % at 1.5 µM ([4]; 1.5 µM)
1 | N#Cc1cccc(Cn2ccc3c(NCc4cccc(Cl)c4)ncnc32)c1 [Compound 11, 3-((4-((3-Chlorobenzyl)amino)-7H-pyrrolo[2,3-d]pyrimidin-7-yl)methyl)benzonitrile] | among the top inhibitors | 90 | 3.16 | 60 | 15.3 | 99 | 5.05 | 6.98 |  |  |  |  | 
2 | O=[N+]([O-])c1ccc(Cn2ccc3c(NCc4cccc(Cl)c4)ncnc32)cc1 [Compound 1, N-(3-Chlorobenzyl)-7-(4-nitrobenzyl)-7H-pyrrolo [2,3-d]pyrimidin-4-amine] | among the top inhibitors | 73 | 5.25 | 69 | 20 | 93 | 5.21 | 10.7 | > 100 |  |  |  | 
3 | N#Cc1ccc(Cn2ccc3c(NCc4cccc(Cl)c4)ncnc32)cc1 [Compound 8, 4-((4-((3-Chlorobenzyl)amino)-7H-pyrrolo[2,3-d]pyrimidin-7-yl)methyl)benzonitrile] | among the top inhibitors | 78 | 4.1 | 68 | 20.6 | 97 | 4.29 | 9.02 |  | 47 |  |  | 
4 | O=[N+]([O-])c1ccc(Cn2ccc3c(NCc4ccc(Cl)c(Cl)c4)ncnc32)cc1 [Compound 23, N-(3,4-Dichlorobenzyl)-7-(4-nitrobenzyl)-7H-pyrrolo[2,3-d]pyrimidin-4-amine] | among the top inhibitors | 91 | 5.7 | 80 | 26.8 | 98 | 5.91 | 10.4 |  |  | 12.0 |  | 
5 | O=[N+]([O-])c1ccc(Cn2ccc3c(NCc4cccc(Cl)c4Cl)ncnc32)cc1 [Compound 21, N-(2,3-Dichlorobenzyl)-7-(4-nitrobenzyl)-7H-pyrrolo[2,3-d]pyrimidin-4-amine] |  | 67 |  | 77 |  | 91 |  |  |  |  |  |  | 
6 | Clc1cccc(CNc2ncnc3c2ccn3Cc2ccccc2)c1 [Compound 3, 7-Benzyl-N-(3-chlorobenzyl)-7H-pyrrolo[2,3-d]pyrimidin-4-amine] |  | 42 |  | 90 |  | 68 |  |  |  |  |  |  | 
7 | CS(=O)(=O)c1cccc(Cn2ccc3c(NCc4cccc(Cl)c4)ncnc32)c1 [Compound 10, N-(3-Chlorobenzyl)-7-(3-(methylsulfonyl)benzyl)-7H-pyrrolo[2,3-d]pyrimidin-4-amine] |  | 72 |  | 82 |  | 92 |  |  |  |  |  |  | 
8 | FC(F)(F)c1cccc(Cn2ccc3c(NCc4cccc(Cl)c4)ncnc32)c1 [Compound 9, N-(3-Chlorobenzyl)-7-(3-(trifluoromethyl)benzyl)-7H-pyrrolo[2,3-d]pyrimidin-4-amine] |  | 92 |  | 61 |  |  |  |  |  |  |  | toxic | 
9 | Nc1ccc(Cn2ccc3c(NCc4cccc(Cl)c4)ncnc32)cc1 [Compound 2, 7-(4-Aminobenzyl)-N-(3-chlorobenzyl)-7H-pyrrolo[2,3-d]pyrimidin-4-amine] |  | 72 |  | 38 |  |  |  |  |  |  |  |  | toxic
10 | Clc1cccc(CNc2ncnc3c2ccn3Cc2ccnc3ccccc23)c1 [Compound 14, N-(3-Chlorobenzyl)-7-(quinolin-4-ylmethyl)-7H-pyrrolo[2,3-d]pyrimidin-4-amine] |  | 100 | 0.93 | 48 | 5.67 |  | 1.1 | 2.28 |  | 94 |  |  | 
11 | O=[N+]([O-])c1cccc(Cn2ccc3c(NCc4cccc(Cl)c4)ncnc32)c1 [Compound 5, N-(3-Chlorobenzyl)-7-(3-nitrobenzyl)-7H-pyrrolo[2,3-d]pyrimidin-4-amine] |  | 77 |  | 79 |  | 92 |  |  |  |  |  |  | 

From article PMC8270260, “4,7-Disubstituted 7H-Pyrrolo[2,3-d]pyrimidines and Their Analogs as Antiviral Agents against Zika Virus” (Molecules, 2021)
